For 20 compounds, Ki and Activity results are on record in ChEMBL document CHEMBL4219250, “Kröhnke pyridines: Rapid and facile access to Mcl-1 inhibitors” (Bioorg Med Chem Lett, 2018).

The source made the active and inactive calls. The rule behind the calls is not given here. Bounds are passed on as bounds.

Test [1] has as its target T1, Induced myeloid leukemia cell differentiation protein Mcl-1 (Homo sapiens, UniProt Q07820). Nature of the test: Displacement of TAMRA-Bak peptide from His6-MBP-tagged recombinant human MCl-1 (172 to 327 residues) expressed in HMS174 (DE3) cells by fluorescence polarization assay. On the technique in general: In fluorescence polarisation assays a small probe gives low polarisation when free and higher when bound to something large.

Test [2] has as its target T1, Induced myeloid leukemia cell differentiation protein Mcl-1. Nature of the test: Binding affinity to 15N-labeled His6-MBP-tagged recombinant human MCl-1 (172 to 327 residues) expressed in HMS174 (DE3) cells by two-dimensional1H-15N HSQC NMR spectra method. It is filed as cell-based.

T1 sequence (Q07820 whole entry, the tested form may be a part): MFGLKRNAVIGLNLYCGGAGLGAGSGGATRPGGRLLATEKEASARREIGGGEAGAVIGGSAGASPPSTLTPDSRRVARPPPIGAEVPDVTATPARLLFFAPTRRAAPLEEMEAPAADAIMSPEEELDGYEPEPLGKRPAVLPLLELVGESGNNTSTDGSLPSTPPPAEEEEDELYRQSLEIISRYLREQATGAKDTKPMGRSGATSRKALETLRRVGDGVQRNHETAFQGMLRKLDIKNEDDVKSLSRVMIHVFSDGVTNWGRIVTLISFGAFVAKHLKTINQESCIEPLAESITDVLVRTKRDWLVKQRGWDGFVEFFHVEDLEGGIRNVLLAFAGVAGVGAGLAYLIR

With `O=C(O)c1cc(-c2ccc(Oc3ccccc3)cc2)cc(-c2ccc(OCc3ccccc3)cc2)n1`, the Ki in test [1] worked out at 6.1 µM.
On to `O=C(O)c1cc(-c2ccc(Br)cc2)cc(-c2ccc(OCc3ccccc3)cc2)n1`, for which the Ki in test [1] is 7.6 µM.
`O=C(O)c1cc(-c2ccc(Oc3ccccc3)cc2)cc(-c2cccc(Br)c2)n1`: the Ki in test [1] was determined as 8.47 µM.
Take `O=C(O)c1cc(-c2ccc(Br)cc2)cc(-c2ccc3c(c2)OCO3)n1`: in test [1], the Ki is over 100 µM.
On the same count and under the same terms, as for `O=C(O)c1cc(-c2ccc(Br)cc2)cc(-c2ccccc2)n1`, the figure is 100 µM; as for `COc1ccc(-c2cc(-c3ccc(Oc4ccccc4)cc3)cc(C(=O)O)n2)cc1`, 10.9 µM; as for `O=C(O)c1cc(-c2ccc(OCc3ccccc3)cc2)cc(-c2ccc(OCc3ccccc3)cc2)n1`, 9.22 µM.
On to `O=C(O)c1cc(-c2ccc(Oc3ccccc3)cc2)cc(-c2ccc([N+](=O)[O-])cc2)n1`, for which, in test [1], the Ki came to 13.7 µM.
Turning to `O=C(O)c1cc(-c2ccc(Br)cc2)nc(-c2ccc(Oc3ccccc3)cc2)c1`, in test [1], the Ki was determined as 4.43 µM. Besides, the outcome in test [2] was Active.
With `CC(C)Oc1ccc(-c2cc(-c3ccc(Oc4ccccc4)cc3)cc(C(=O)O)n2)cc1`, the Ki in test [1] amounted to 7.33 µM.
Regarding `O=C(O)c1cc(-c2ccc(Br)cc2)cc(-c2ccc(Br)cc2)n1`, the Ki in test [1] is 40 µM.
Still for that read-out and setting: the figure for `CC(C)Oc1ccc(-c2cc(C(=O)O)nc(-c3ccc(OC(C)C)cc3OC(C)C)c2)cc1` is 19.7 µM; for `O=C(O)c1cc(-c2ccc(Oc3ccccc3)cc2)cc(-c2ccccc2Br)n1` it is 10.3 µM; for `O=C(O)c1cc(-c2ccc(Oc3ccccc3)cc2)cc(-c2ccc3c(c2)OCO3)n1` it is 38.2 µM.
Take `CC(C)Oc1ccc(-c2cc(C(=O)O)nc(-c3ccc(OC(C)C)cc3)c2)cc1`: the Ki in test [1] turned out to be 28.8 µM.
Regarding `O=C(O)c1cc(-c2ccc(Oc3ccccc3)cc2)cc(-c2ccc(Br)cc2)n1`, the Ki in test [1] came out at 7.44 µM.
Consider `CC(C)Oc1ccc(-c2cc(C(=O)O)nc(-c3ccc(OCc4ccccc4)cc3)c2)cc1`, for which the Ki in test [1] came to 9.77 µM.
Take `O=C(O)c1cc(-c2ccc(Br)cc2)cc(-c2ccc(Cl)cc2)n1`: the Ki in test [1] came to 40 µM.
On to `O=C(O)c1cc(-c2ccc(Oc3ccccc3)cc2)cc(-c2ccccc2)n1`, for which the Ki in test [1] was determined as 9.24 µM.
Same read-out and setting: the figure for `COc1ccc(-c2cc(-c3ccc(Br)cc3)cc(C(=O)O)n2)cc1` is 40 µM.

Usually Ki stands for a measure of affinity in units of concentration, obtained from inhibition or displacement.
